In patent US10538532B2, “Hepatitis B antiviral agents” (ENANTA PHARMACEUTICALS, INC., priority 2016, dated 2020):
Where two headings read alike, the source gives them in different places.

Test system: HBV
Test: HepAD38 antiviral assay: reduction of viral product accumulation (virion DNA by qPCR, HBsAg or HBeAg by ELISA)
Format: cell-based, hepatitis B virus
Details: Hepatitis B virus, HePAD38, 120 h, read-out: HepAD38 EC50
Protocol: Methods: HepAD38 cells are maintained as previously reported (Ladner et al, Antimicrob. Agents Chemother. 1997, […], 1715). Briefly, cells are passaged upon attaining confluency in DMEM/F12 media in the presence of 10% FBS, Penn/Strep, 250 μg/mL G418, and 1 ug/ml tetracycline. Novel compounds are screened by first washing cells three times with PBS to remove tetracycline, and plating in 96 well plates at 35,000 cells/well. Compounds dissolved in DMSO are then diluted 1:200 into wells containing cells. Five days after compound addition, material is harvested for analysis. For an extended 8 day analysis, cells are plated and treated as described above, but media and compound are refreshed on d2 and d5 post initial treatment.
On harvest day, virion DNA is obtained by lysing with Sidestep Lysis and Stabilization Buffer and then quantified via quantitative real time PCR. Commercially available ELISA kits are used to quantitate the viral proteins HBsAg (Alpco) or HbeAg (US Biological) by following the manufacturer's recommended protocol after diluting samples to match the linear range of their respective assays. Irrespective of readout, compound concentrations that reduce viral product accumulation in the cell lysates or supernatants by 50% relative to no drug controls (EC50) are reported; EC50 ranges are as follows: A<0.1 μM; B 0.1-0.4 μM; C>0.4 μM.

[1] = HepAD38 cells, five days after compound addition, concentration reducing viral product accumulation by 50% relative to no drug controls

| Structure (SMILES) | EC50 [1] | EC50 |
| --- | --- | --- |
| O=C(Nc1cc(F)c(F)c(F)c1)c1ccc(Cl)c(S(=O)(=O)[C@H]2C3CC[C@H]2C(O)C(=O)C3)c1 (stereo partly shown) [Example 146] | < 100 nM |  |
| CN(C)c1ccc(C(=O)Nc2cc(F)c(F)c(F)c2)cc1S(=O)(=O)[C@H]1C2CC[C@H]1C[C@](O)(CO)C2 [Example 147] | > 400 nM |  |
| [N-]=[N+]=Nc1ccc(C(=O)Nc2cc(F)c(F)c(F)c2)cc1S(=O)(=O)[C@H]1C2CC[C@H]1C[C@](O)(CO)C2 [Example 148] | > 400 nM |  |
| O=C(Nc1cc(F)c(F)c(F)c1)c1ccc(Cl)c(S(=O)(=O)[C@H]2C3CC[C@H]2C[C@](O)(C(O)c2ccccc2)C3)c1 (stereo partly shown) [Example 149] | < 100 nM |  |
| CC(C)(O)[C@]1(O)CC2CC[C@@H](C1)[C@H]2S(=O)(=O)c1cc(C(=O)Nc2cc(F)c(F)c(F)c2)ccc1Cl [Example 151] | < 100 nM |  |
| CO[C@]1(CO)CC2CC[C@@H](C1)[C@H]2S(=O)(=O)c1cc(C(=O)Nc2cc(F)c(F)c(F)c2)ccc1Cl [Example 152] | < 100 nM |  |
| COC(=O)[C@]1(O)CC2CC[C@@H](C1)[C@H]2S(=O)(=O)c1cc(C(=O)Nc2cc(F)c(F)c(F)c2)ccc1Cl [Example 153] | > 400 nM |  |
| O=C1OC[C@@]2(CC3CC[C@@H](C2)[C@H]3S(=O)(=O)c2cc(C(=O)Nc3cc(F)c(F)c(F)c3)ccc2Cl)O1 [Example 155] | < 100 nM |  |
| O=C(Nc1cc(F)c(F)c(F)c1)c1ccc(Cl)c(S(=O)(=O)[C@H]2C3CC[C@H]2C(O)[C@](O)(CO)C3)c1 (stereo partly shown) [Example 156] | < 100 nM |  |
| O=C(Nc1cc(F)c(F)c(F)c1)c1ccc(Cl)c(S(=O)(=O)[C@H]2C3CC[C@H]2C[C@](O)(/C=N/Oc2ccccc2)C3)c1 [Example 157] | < 100 nM |  |
| O=C(Nc1cc(F)c(F)c(F)c1)c1ccc(Cl)c(S(=O)(=O)[C@H]2C3CC[C@H]2C[C@](O)(/C=N/O)C3)c1 [Example 158] | < 100 nM |  |
| [2H]C1([2H])C2C[C@@](O)(CO)C[C@H](C1([2H])[2H])[C@@]2([2H])S(=O)(=O)c1cc(C(=O)Nc2cc(F)c(F)c(F)c2)ccc1Cl [Example 159] | < 100 nM |  |
| C[Si](C)(C)C#C[C@@]1(O)CC2CC[C@@H](C1)[C@H]2S(=O)(=O)c1cc(C(=O)Nc2cc(F)c(F)c(F)c2)ccc1Cl [Example 160] |  | 100 to 400 nM |
| C#C[C@@]1(O)CC2CC[C@@H](C1)[C@H]2S(=O)(=O)c1cc(C(=O)Nc2cc(F)c(F)c(F)c2)ccc1Cl [Example 161] | < 100 nM |  |
| C#C[C@]1(O)CC2CC[C@@H](C1)[C@H]2S(=O)(=O)c1cc(C(=O)Nc2cc(F)c(F)c(F)c2)ccc1Cl [Example 162] | < 100 nM |  |
| O=C(Nc1cc(F)c(F)c(F)c1)c1ccc(Cl)c(S(=O)(=O)[C@H]2C3CC[C@H]2[C@@H](CO)C(=O)C3)c1 [Example 163] | 100 to 400 nM |  |
| O=C(Nc1cc(F)c(F)c(F)c1)c1ccc(Cl)c(S(=O)(=O)[C@H]2C3CC[C@H]2C[C@@](O)(CO)C3)c1 [Example 164] | < 100 nM |  |
| O=C(Nc1cc(F)c(F)c(F)c1)c1ccc(Cl)c(S(=O)(=O)CCCCO[C@H]2C3CC[C@H]2C[C@](O)(CO)C3)c1 [Example 165] | > 400 nM |  |
| O=C(Nc1cc(F)c(F)c(F)c1)c1ccc(Cl)c(S(=O)(=O)C(CO)CC2CCOCC2)c1 (stereo not shown) [Example 166] | 100 to 400 nM |  |
| O=C(Nc1cc(F)c(F)c(F)c1)c1ccc(Cl)c(S(=O)(=O)[C@H]2C3CC[C@H]2C[C@](O)(C#Cc2ccccc2)C3)c1 [Example 167] | 100 to 400 nM |  |
| O=C(Nc1cc(F)c(F)c(F)c1)c1ccc(Cl)c(S(=O)(=O)[C@H]2C3CC[C@H]2C[C@@](O)(C#Cc2ccccc2)C3)c1 [Example 168] | > 400 nM |  |
| O=C(Nc1cc(F)c(F)c(F)c1)c1ccc(Cl)c(S(=O)(=O)[C@H]2C3CC[C@H]2C[C@](O)(C#Cc2ccncc2)C3)c1 [Example 169] | < 100 nM |  |
| O=C(Nc1cc(F)c(F)c(F)c1)c1ccc(Cl)c(S(=O)(=O)[C@H]2C3CC[C@H]2C[C@@](O)(C#Cc2ccncc2)C3)c1 [Example 170] | > 400 nM |  |
| O=C(Nc1cc(F)c(F)c(F)c1)c1ccc(Cl)c(S(=O)(=O)[C@H]2C3CC[C@H]2C[C@](O)(C#Cc2ccccn2)C3)c1 [Example 171] | < 100 nM |  |
| O=C(Nc1cc(F)c(F)c(F)c1)c1ccc(Cl)c(S(=O)(=O)[C@H]2C3CC[C@H]2C[C@@](O)(C#Cc2ccccn2)C3)c1 [Example 172] | 100 to 400 nM |  |
| C=CC[C@]1(O)CC2CCC(C1)[C@@H]2S(=O)(=O)c1cc(C(=O)Nc2cc(F)c(F)c(F)c2)ccc1Cl [Example 173] | < 100 nM |  |
| O=C(Nc1cc(F)c(F)c(F)c1)c1ccc(Cl)c(S[C@H]2C3CC4C[C@H](C3)C[C@@H]2C4)c1 [Example 174] | > 400 nM |  |
| O=C(Nc1cc(F)c(F)c(F)c1)c1ccc(Cl)c([S+]([O-])[C@H]2C3C[C@@H]4C[C@H](C3)C[C@@H]2C4)c1 (stereo partly shown) [Example 175] | > 400 nM |  |

| Structure (SMILES) | EC50 [1] | EC50 |
| --- | --- | --- |
| O=C(Nc1cc(F)c(F)c(F)c1)c1ccc(Cl)c(S(=O)(=O)[C@H]2C3C[C@@H]4C[C@H](C3)C[C@@H]2C4)c1 [Example 176] | > 400 nM |  |
| O=C(Nc1cc(F)c(F)c(F)c1)c1ccc(Cl)c(S(=O)(=O)C[C@H]2C3CC[C@H]2C[C@](O)(CO)C3)c1 [Example 177] | < 100 nM |  |
| O=C(Nc1cc(F)c(F)c(F)c1)c1ccc(Cl)c(S(=O)(=O)C[C@@H]2C3CC[C@H]2C[C@](O)(CO)C3)c1 [Example 178] | < 100 nM |  |
| O=C1CC2CC[C@@H](C1)[C@@H]2CS(=O)(=O)c1cc(C(=O)Nc2cc(F)c(F)c(F)c2)ccc1Cl [Example 179] | < 100 nM |  |
| O=C1CC2CC[C@@H](C1)[C@H]2CS(=O)(=O)c1cc(C(=O)Nc2cc(F)c(F)c(F)c2)ccc1Cl [Example 180] | < 100 nM |  |
| O=C(Nc1cc(F)c(F)c(F)c1)c1ccc(Cl)c(S(=O)(=O)C[C@@H]2C3CC[C@H]2C[C@@H](O)C3)c1 [Example 181] | < 100 nM |  |
| O=C(Nc1cc(F)c(F)c(F)c1)c1ccc(Cl)c(S(=O)(=O)[C@H]2CC3CCC(C2)[C@H]3O)c1 [Example 183] | 100 to 400 nM |  |
| O=C(Nc1cc(F)c(F)c(F)c1)c1ccc(Cl)c(S(=O)(=O)[C@H]2CC3CCC(C2)[C@H]3OC2CCCO2)c1 (stereo partly shown) [Example 184] | > 400 nM |  |
| CC(=O)OC[C@]1(OC(C)=O)CC2CC[C@@H](C1)[C@H]2S(=O)(=O)c1cc(C(=O)Nc2cc(F)c(F)c(F)c2)ccc1Cl [Example 185] | < 100 nM |  |
| CS(=O)(=O)NC[C@@]1(O)CC2CC[C@@H](C1)[C@H]2S(=O)(=O)c1cc(C(=O)Nc2cc(F)c(F)c(F)c2)ccc1Cl [Example 186] | 100 to 400 nM |  |
| O=C(Nc1cc(F)c(F)c(F)c1)c1ccc(Cl)c(S(=O)(=O)[C@H]2C3CC[C@H]2C[C@](O)(COCc2cccnc2)C3)c1 [Example 187] | < 100 nM |  |
| CC(C)(C)[Si](C)(C)O[C@H]1C2CCC1C[C@@H](Sc1cc(C(=O)Nc3cc(F)c(F)c(F)c3)ccc1Cl)C2 [Example 189] |  | 100 to 400 nM |
| O=C(Nc1cc(F)c(F)c(F)c1)c1ccc(Cl)c(S[C@H]2CC3CCC(C2)[C@@H]3O)c1 [Example 190] | > 400 nM |  |
| O=C(Nc1cc(F)c(F)c(F)c1)c1ccc(Cl)c(S[C@H]2CC3CCC(C2)[C@H]3O)c1 [Example 191] | > 400 nM |  |
| O=C(Nc1cc(F)c(F)c(F)c1)c1ccc(Cl)c(S(=O)(=O)[C@H]2CC3CCC(C2)[C@@H]3O)c1 [Example 192] | 100 to 400 nM |  |
| O=C(Nc1cc(F)c(F)c(F)c1)c1ccc(Cl)c(S(=O)(=O)C[C@@H]2C3CC[C@H]2C[C@H](O)C3)c1 [Example 193] | 100 to 400 nM |  |
| O=C(Nc1cc(F)c(F)c(F)c1)c1ccc(Cl)c(S(=O)(=O)C[C@H]2C3CCC2C[C@H](O)C3)c1 [Example 194] | < 100 nM |  |
| CC(C)(C)[Si](C)(C)O[C@H]1C2CCC1C[C@@H](S(=O)(=O)c1cc(C(=O)Nc3cc(F)c(F)c(F)c3)ccc1Cl)C2 [Example 195] | > 400 nM |  |
| C/[N+]([O-])=C\[C@]1(O)CC2CC[C@@H](C1)[C@H]2S(=O)(=O)c1cc(C(=O)Nc2cc(F)c(F)c(F)c2)ccc1Cl [Example 196] | < 100 nM |  |
| CCOC(OCC)[C@]1(O)CC2CC[C@@H](C1)[C@H]2S(=O)(=O)c1cc(C(=O)Nc2cc(F)c(F)c(F)c2)ccc1Cl [Example 197] | 100 to 400 nM |  |
| O=C(Nc1cccnc1)N[C@@H]1C2CC[C@H]1C[C@H](S(=O)(=O)c1cc(C(=O)Nc3cc(F)c(F)c(F)c3)ccc1Cl)C2 [Example 198] | < 100 nM |  |
| O=C(Nc1cc(F)c(F)c(F)c1)c1ccc(Cl)c(S(=O)(=O)[C@H]2C3CC[C@H]2C[C@](O)(/C=[N+](\[O-])Cc2ccccc2)C3)c1 [Example 199] | 100 to 400 nM |  |
| CN1OCC(C#N)C1[C@]1(O)CC2CC[C@@H](C1)[C@H]2S(=O)(=O)c1cc(C(=O)Nc2cc(F)c(F)c(F)c2)ccc1Cl (stereo partly shown) [Example 200] | 100 to 400 nM |  |
| CO/N=C/[C@]1(O)CC2CC[C@@H](C1)[C@H]2S(=O)(=O)c1cc(C(=O)Nc2cc(F)c(F)c(F)c2)ccc1Cl [Example 201] | < 100 nM |  |
| CCO/N=C/[C@]1(O)CC2CC[C@@H](C1)[C@H]2S(=O)(=O)c1cc(C(=O)Nc2cc(F)c(F)c(F)c2)ccc1Cl [Example 202] | < 100 nM |  |
| CC(C)(C)O/N=C/[C@]1(O)CC2CC[C@@H](C1)[C@H]2S(=O)(=O)c1cc(C(=O)Nc2cc(F)c(F)c(F)c2)ccc1Cl [Example 203] | < 100 nM |  |
| C=CCO/N=C/[C@]1(O)CC2CC[C@@H](C1)[C@H]2S(=O)(=O)c1cc(C(=O)Nc2cc(F)c(F)c(F)c2)ccc1Cl [Example 204] | < 100 nM |  |
